Data: ChEMBL document CHEMBL3045669, “Evaluation of crude toxin and metabolite produced by Helminthosporium gramineum Rabenh for the control of rice sheath blight in paddy fields” (2007)

Experiments:
Assay type in all cases: functional
Conditions in all cases: read-out: GI
Rhizoctonia solani [1] = assay: Growth inhibition of Rhizoctonia solani AG-1 IA at 50 ug/ml after 24 hr
Rhizoctonia solani [2] = assay: Growth inhibition of Rhizoctonia solani AG-1 IA at 200 ug/ml after 24 hr
Rhizoctonia solani [3] = assay: Growth inhibition of Rhizoctonia solani AG-1 IA at 10 ug/ml after 24 hr
Rhizoctonia solani [4] = assay: Growth inhibition of Rhizoctonia solani AG-1 IA at 25 ug/ml after 24 hr
Rhizoctonia solani [5] = assay: Growth inhibition of Rhizoctonia solani AG-1 IA at 100 ug/ml after 24 hr
Rhizoctonia solani [6] = assay: Growth inhibition of Rhizoctonia solani AG-1 IA at 1 ug/ml after 24 hr

Row | SMILES | inhibition of growth at 50 µg/mL (Rhizoctonia solani [1]) | inhibition of growth at 200 µg/mL (Rhizoctonia solani [2]) | inhibition of growth at 10 µg/mL (Rhizoctonia solani [3]) | inhibition of growth at 25 µg/mL (Rhizoctonia solani [4]) | inhibition of growth at 100 µg/mL (Rhizoctonia solani [5]) | inhibition of growth at 1 µg/mL (Rhizoctonia solani [6])
1 | OCC1=C[C@H](N[C@H]2C[C@H](CO)[C@@H](O[C@@H]3O[C@H](CO)[C@@H](O)[C@H](O)[C@H]3O)[C@H](O)[C@H]2O)[C@H](O)[C@@H](O)[C@@H]1O [VALIDAMYCIN] | 22.6% | 45.2% | 5.7% | 17% | 34% | 
2 | CC(C)=C[C@H]1C[C@H](C)[C@]2(CC[C@]3(C)C[C@H]4[C@H](C(=O)C[C@@]4(C)O)/C(C=O)=C\C[C@H]32)O1 [OPHIOBOLIN A] | 100% |  | 85.9% | 100% |  | 70.2%
